Earlier results as cited in US20060275294A1, “METHOD OF PREVENTION AND TREATMENT OF AGING, AGE-RELATED DISORDERS AND/OR AGE-RELATED MANIFESTATIONS INCLUDING ATHEROSCLEROSIS, PERIPHERAL VASCULAR DISEASE, CORONARY ARTERY DISEASE, OSTEOPOROSIS, ARTHRITIS, TYPE 2 DIABETES, DEMENTIA, ALZHEIMERS DISEASE AND CANCER” (priority 2002, published 2006).

How the values were obtained:
[1] = test system: interleukin (IL)-6 bioactivity; conditions: cited from earlier work
NF-kappaB = conditions: pretreatment, rat VSMCs; cited from earlier work
[2] = biological target: isopentenyl diphosphate isomerase (Homo sapiens, UniProt Q13907); conditions: cited from earlier work
Chain of isopentenyl diphosphate isomerase (Q13907 whole entry): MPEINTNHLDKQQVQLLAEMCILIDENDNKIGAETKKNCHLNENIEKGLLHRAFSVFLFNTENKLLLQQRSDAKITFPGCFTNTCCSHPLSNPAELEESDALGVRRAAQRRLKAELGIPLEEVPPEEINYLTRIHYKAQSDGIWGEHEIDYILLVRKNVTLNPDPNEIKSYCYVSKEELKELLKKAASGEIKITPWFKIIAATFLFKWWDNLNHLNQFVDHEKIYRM

GGPP synthase = GGPP synthase (Homo sapiens, UniProt O95749); conditions: cited from earlier work
Chain of GGPP synthase (O95749 whole entry, species assumed): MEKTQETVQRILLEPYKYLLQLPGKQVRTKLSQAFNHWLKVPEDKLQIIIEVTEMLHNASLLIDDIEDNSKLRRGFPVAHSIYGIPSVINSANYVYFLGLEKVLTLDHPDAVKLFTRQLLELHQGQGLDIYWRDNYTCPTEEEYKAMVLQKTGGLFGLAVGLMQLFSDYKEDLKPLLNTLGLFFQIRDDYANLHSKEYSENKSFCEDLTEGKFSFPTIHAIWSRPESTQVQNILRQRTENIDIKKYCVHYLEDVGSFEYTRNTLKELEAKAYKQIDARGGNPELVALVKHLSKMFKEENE

[3] = biological target: Recombinant human farnesyl diphosphate synthase (Homo sapiens, UniProt P14324); conditions: cited from earlier work
Chain of Recombinant human farnesyl diphosphate synthase (P14324 whole entry): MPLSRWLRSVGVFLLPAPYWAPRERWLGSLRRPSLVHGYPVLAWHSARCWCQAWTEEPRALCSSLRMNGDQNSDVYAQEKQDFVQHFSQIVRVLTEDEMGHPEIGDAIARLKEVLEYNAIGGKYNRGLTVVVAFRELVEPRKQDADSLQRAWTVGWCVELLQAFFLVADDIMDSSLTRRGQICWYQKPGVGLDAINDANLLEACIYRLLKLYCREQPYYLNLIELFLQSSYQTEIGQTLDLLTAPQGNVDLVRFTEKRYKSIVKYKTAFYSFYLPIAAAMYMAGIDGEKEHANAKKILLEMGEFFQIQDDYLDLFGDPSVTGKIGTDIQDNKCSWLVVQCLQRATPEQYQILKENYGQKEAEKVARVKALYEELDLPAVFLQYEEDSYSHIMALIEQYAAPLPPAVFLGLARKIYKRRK

[4] = test system: human monocytic THP-1 cells; conditions: 10 microM, 24 h pretreatment; cited from earlier work
[5] = test system: rat primary astrocytes, microglia, and macrophages; conditions: cited from earlier work
[6] = test system: human T, B and myeloma tumor cells; conditions: by promoting apoptosis; cited from earlier work

For O=c1c(-c2ccc(O[C@@H]3O[C@H](CO)[C@@H](O)[C@H](O)[C@H]3O)cc2)coc2cc(O)cc(O)c12 [Sophoricoside], the IC50 [1] is given as 6.1 µM.
In the case of Cc1ccc(S(=O)(=O)N[C@@H](Cc2ccccc2)C(=O)CCl)cc1 [TPCK], the “Sar1 Ang II-induced NF-kappaB activation and induction of endogenous IL-6 gene expression” value (NF-kappaB) is given as “completely blocked”.
For NCCCC(O)(P(=O)(O)O)P(=O)(O)O [alendronate], the “inhibition of isopentenyl diphosphate isomerase” value [2] is given as “did not inhibit” and the “inhibition of GGPP synthase” value (GGPP synthase) is given as “did not inhibit”.
In the case of O=P(O)(O)C(Cl)(Cl)P(=O)(O)O [clodronate], the “inhibition of recombinant farnesyl diphosphate synthase” value [3] is given as “not at all”.
In the case of CC[C@H](C)C(=O)O[C@H]1C[C@@H](C)C=C2C=C[C@H](C)[C@H](CC[C@@H]3C[C@@H](O)CC(=O)O3)[C@H]21 [lovastatin], the “hydrogen peroxide (H2O2) generation” value [4] is listed as “markedly suppressed”, the “LPS-mediated activation of NF kappa B” value ([5]; astrocytes) is listed as “Inhibition” and the “LPS-induced expression of TNF-alpha, IL-1beta, and IL-6” value ([5]; rat primary astrocytes, microglia, macrophages) is listed as “inhibited”. The “LPS and cytokine-mediated production of NO and expression of iNOS” value ([5]; rat primary astrocytes) was “inhibit” and the “effect on human T, B and myeloma tumor cells” value [6] was “cytotoxic effect”.
